Source: US20080221200A1, “Combination of Organic Compounds” (priority 2005, published 2008)

Columns and labels:
[1] = system: mice (NOD); assay: Effect on insulitis in NOD mice dosed intraperitoneally; assay type: in vivo; settings: intraperitoneal, from 4 weeks of age, 3 times a week for four weeks, assessed at 14 weeks
Experimental: To investigate the effect of Vildagliptin or the combination “Vildagliptin+compound A” on insulitis or type I diabetes mellitus, mice (NOD) with a genetic predisposition to develop IDDM (insulin dependent diabetes mellitus) are treated with Vildagliptin or the combination “Vildagliptin+compound A”. The animals are dosed intraperitoneally from 4 weeks of age, 3 times a week for four weeks. Insulitis is assessed at 14 weeks and scored in a table. The mice are scored according to the method of Beales et al. (European Journal of Pharmacology 357 (1998) 221-225. 3 or more (DMSO and PBS) represents severe grade insulitis and 1-3 represents little infiltration (a score of 1 would represent low grade peri-insulitis).

[2] = system: non-obese diabetic (NOD) mice; assay: Incidence of insulitis in NOD mice, supplementation in drinking water during pregnancy and lactation; assay type: in vivo; settings: maternal drinking water through pregnancy and lactation, examined at 12 weeks of age
Text: F. Effect of Vildagliptin and the combination of “Vildagliptin+compound A” on incidence of Insulitis Diabetes-prone non-obese diabetic (NOD) mice in which females develop a 90% rate of autoimmune diabetes by the age of 25 weeks is studied in order to determine the effect of Vildagliptin and the combination of “Vildagliptin+compound A” on insulitis onset and development. Insulitis initiates at 3-5 weeks of age in NOD mice, as leukocytes begin to infiltrate around ducts and venules in both female and male mice. These infiltrates progress toward the islets, which become surrounded by concentric layers of pen-insular lymphocytes (non-destructive peri-insulitis). Destructive intra-islet insulitis then occurs, leading to extensive P cell destruction. All NOD mice display peri-insulitis, whereas intra-insulitis and overt Type 1 diabetes is restricted to about 70-80% of females and about 10-15% of males in the NOD mouse colony used in this instance. […] Mice which are examined and found to have evidence of insulitis, are then further scored as peri-islet (slight), less than 50% area of islet (medium) or more than 50% islet area (heavy), as indicative of the stage and/or severity of insulitis.

Compound: N#C[C@@H]1CCCN1C(=O)CNC12CC3CC(CC(O)(C3)C1)C2 [vildagliptin, (S)-1-[(3-hydroxy-1-adamantyl)amino]acetyl-2-cyano-pyrrolidine]
- insulitis score [1]: unexpected good results in reducing insulitis
- insulitis (histological evidence within pancreatic islets) [2]: unexpected good results in reducing insulitis
